PubChem BioAssay (NCI)
“And” between values parts separate entries of the source, which are not always exact repeats. Equal entries are not always repeated.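 All cell lines were grown in 96-well plates and treated with compound for 48 hours. At the GI50, growth is halved. TGI is the concentration that stops growth completely.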

Tests used:
Experiment in all cases: DTP human tumour cell line panel, 48 h
M14 melanoma = system: M14 melanoma
LOX IMVI melanoma = system: LOX IMVI melanoma
A498 renal = system: A498 renal
SNB-19 CNS = system: SNB-19 CNS
TK-10 renal = system: TK-10 renal
HCC-2998 colon = system: HCC-2998 colon
SK-OV-3 ovarian = system: SK-OV-3 ovarian
OVCAR-3 ovarian = system: OVCAR-3 ovarian
MOLT-4 leukemia = system: MOLT-4 leukemia
PC-3 prostate = system: PC-3 prostate

Row | SMILES | GI50 (M14 melanoma) [µM] | TGI (M14 melanoma) [µM] | GI50 (LOX IMVI melanoma) [µM] | TGI (LOX IMVI melanoma) | GI50 (A498 renal) [µM] | TGI (A498 renal) [µM] | GI50 (SNB-19 CNS) [µM] | TGI (SNB-19 CNS) [µM] | GI50 (TK-10 renal) [µM] | TGI (TK-10 renal) [µM] | GI50 (HCC-2998 colon) [µM] | TGI (HCC-2998 colon) | GI50 (SK-OV-3 ovarian) [µM] | TGI (SK-OV-3 ovarian) [µM] | GI50 (OVCAR-3 ovarian) [µM] | TGI (OVCAR-3 ovarian) | GI50 (MOLT-4 leukemia) [µM] | TGI (MOLT-4 leukemia) [µM] | GI50 (PC-3 prostate) [µM] | TGI (PC-3 prostate) [µM]
1 | CNCCN(C)Cc1cn[nH]c1-c1ccc(OC2CC(OCCC3CCOCC3)C2)cc1 (stereo unspecified) | > 66.3 | > 100 | 60.1 | > 100 µM | > 57.1 | > 100 | > 100 | > 100 | > 100 | > 100 | > 100 | > 100 µM | > 100 | > 100 | > 80 | > 100 µM | > 80.2 | > 100 | > 63.4 | > 100
2 | O=c1c2cc(O)c(O)cc2oc2cc(O)c(C3OC(CO)C(O)C(O)C3O)c(O)c12 (stereo unspecified) | – | > 100 | – | > 100 µM | – | > 100 | – | > 100 | – | > 100 | – | > 100 µM | – | > 100 | – | > 100 µM | – | > 100 | – | > 100
3 | O=C(CSc1ncc(-c2ccccc2)n1-c1ccccc1)Nc1ccc(-c2nc3ccccc3s2)cc1 | – | – | 5.31 | > 100 µM | 39.7 | > 100 | 15.1 | > 100 | 34.4 | > 100 | > 100 | > 100 µM | 55.7 | > 100 | 7.22 | > 100 µM | – | – | > 100 | > 100
4 | CCCc1n(Cc2ccc3ccccc3n2)cc[n+]1Cc1ccc2ccccc2n1 | 2.29 | 13.5 | 2.43 | 10.9 µM | 7.21 | 35 | 1.13 | 13.2 | 2.84 | 12.7 | 0.985 | 14.8 µM | 2.44 | 9.68 | 0.705 | 10.6 µM | 2.89 | 16.5 | 1.85 | 14.7
5 | C#Cc1ccc(-n2c(/C=C/c3ccc4ccccc4c3)nc3ncccc3c2=O)cc1 | – | – | 0.517 | 3.11 µM | 1.69 | 5.86 | – | – | 4.04 | > 100 | 2.32 | 5.04 µM | 7.55 | > 100 | – | – | 2 | > 100 | 2.35 | > 100
6 | COc1cc2c(cc1O)C1CC(CC3CCCCN31)OC(=O)/C=C\c1ccc(O)c-2c1 (stereo unspecified) | – | 46.6 | – | 32.3 µM | – | 30.6 | – | > 100 | – | 95.8 | – | 36 µM | – | 96.7 | – | 62 µM | – | 60.2 | – | 99.5
7 | CCN(CCO)CCCOc1ccc2c(Nc3cc(CC(=O)Nc4cccc(F)c4)[nH]n3)ncnc2c1 | 20.9 | > 56.2 | 10.6 | 32.2 µM and > 3.26 µM | > 49.1 | > 100 | 15.4 | > 60.6 | > 67.8 | > 100 | 20.8 | 61.9 µM and > 3.75 µM | 15.6 | > 57.1 | 10.9 | 42.9 µM and > 4.07 µM | 3.38 | > 88.4 | 17.7 | > 64.8
8 | COc1ccc(/C=C2/CN(CCC#N)C/C(=C\c3ccc(OC)cc3)C2=O)cc1 | 3.01 | 9.6 | 1.7 | 4.03 µM | 5.03 | 21.5 | 4.07 | > 100 | 3.21 | 7.91 | 1.9 | 3.47 µM | 5.24 | 51.8 | 2.79 | 7.46 µM | 3.69 | > 100 | 2.67 | > 100
9 | COC(=O)C1(C)CCCC2(C)c3cc(OC)ccc3C(=O)C(Br)C12 (stereo unspecified) | – | > 10 | – | > 10 µM | – | > 10 | – | > 10 | – | > 10 | – | > 10 µM | – | > 10 | – | > 10 µM | – | 4.17 | – | > 10
10 | Cc1cn2c(/C=C3/C(=O)Nc4ccc(Cl)cc43)c(C)nc2s1 | < 0.028 | > 45.7 | 0.0706 | 54.5 µM | 0.1 | 0.645 | – | > 42.4 | 2.42 | 17.5 | < 0.024 | 1.04 µM | 0.384 | 24.2 | 0.564 | 5.28 µM | 0.0776 | > 100 | 0.0447 | –
11 | CC[C@@]1(O)C(=O)NCc2c1cc1n(c2=O)Cc2cc3c(NC(C)=O)cccc3nc2-1 | > 100 | > 100 | > 100 | > 100 µM | > 100 | > 100 | > 100 | > 100 | > 100 | > 100 | > 100 | > 100 µM | > 100 | > 100 | > 100 | > 100 µM | > 100 | > 100 | > 100 | > 100
12 | Cn1cc(C2=C(c3c(S(C)=O)n(C)c4ccccc34)C(=O)NC2=O)c2ccccc21 (stereo unspecified) | 7.56 | > 25 | 13.7 | > 25 µM | 4.03 | > 20.5 | 25 | > 25 | 6.26 | > 25 | 18.9 | > 25 µM | 7.87 | > 25 | 6.31 | 17.5 µM | 9.4 | > 25 | 8.19 | > 25
13 | COC(=O)[C@]12CC[C@@H](C)[C@H](C)[C@@H]1C1=CC[C@@H]3[C@@]4(C)CC(=O)[C@H](O)[C@@](C)(CO)[C@@H]4C(=O)C[C@@]3(C)[C@]1(C)CC2 | 11.9 | 25.1 | 12.2 | 25.8 µM | 19.4 | 33.9 | 12.9 | 27.8 | 19.7 | 34 | 16.9 | 33.9 µM | 16.6 | 30.5 | 11.6 | 24.8 µM | 10.3 | 27.1 | 0.931 | 15
14 | O=C(Nc1ccccc1)Nc1ccc(Cl)c(Cl)c1 | 4.64 | > 100 | 2.51 | 16.3 µM | 5.04 | 68.5 | 3.1 | > 100 | 3.83 | 36.2 | 4.03 | > 100 µM | 5.52 | > 100 | 2.44 | 8.76 µM | 3.58 | 86.8 | 2.41 | 9.72
15 | O=C(/C=C/c1ccccc1)OCC1=C[C@@H](O)[C@@H]2C=CO[C@@H](OC3OC(CO)C(O)C(O)C3O)[C@H]12 (stereo partly specified) | – | > 100 | – | > 100 µM | – | > 100 | – | > 100 | – | > 100 | – | > 100 µM | – | > 100 | – | > 100 µM | – | > 100 | – | > 100
16 | COc1cc(NC(=O)c2ccccc2Nc2ccnc(C(F)(F)F)c2)cc(OC)c1OC | 73.3 | > 100 | 75.6 | > 100 µM | 26.6 | > 100 | 77.1 | > 100 | 72.3 | > 100 | 88.3 | > 100 µM | > 100 | > 100 | 22.4 | > 100 µM | 36.9 | > 100 | 35.3 | > 100
17 | CC/C(=N/N=C(N)N)c1ccc(NC(=O)Nc2ccc(/C(CC)=N/N=C(N)N)cc2)cc1 | 10.4 | 37.4 | 9.41 | 35 µM | 36.3 | > 100 | 8.55 | 85 | 2.31 | 9.96 | 7.56 | 36.3 µM | 16.5 | 64.5 | 6.19 | 32 µM | 2.07 | 6.51 | 6.27 | 33.7
18 | COc1c2ccccc2c(O)c2c(=O)ccn(C)c12 | 2.3 | 5.81 | 2.02 | 11.3 µM | 10.7 | 41.6 | 7.77 | > 100 | 11.3 | 55.8 | 3.68 | 20 µM | 75.1 | > 100 | 1.86 | 11 µM | 17.9 | > 83.8 | 15 | 57.6
19 | Cc1cc2c(cc1Cl)N1C(=O)NS(=O)(=O)N=C1NS2(=O)=O | > 100 | > 100 | > 100 | > 100 µM | > 100 | > 100 | > 100 | > 100 | > 100 | > 100 | > 100 | > 100 µM | > 100 | > 100 | > 100 | > 100 µM | > 100 | > 100 | > 100 | > 100
20 | COc1cc(-c2nn(-c3cccc(NC(=O)CCN4CCN(C)CC4)c3)cc2-c2ccncc2)ccc1Cl | 1.09 | 2.71 | 0.922 | 2.22 µM | 0.412 | 3.23 | 2.01 | 8.89 | 3.8 | 14.6 | 1.86 | 3.79 µM | 1.81 | 7.34 | 0.363 | 1.75 µM | 1.44 | 4.89 | 0.995 | 3.68
21 | Cc1cc(N)cc(C)c1-c1c(Br)cc(N)cc1Br | 2.65 | 8.76 | 6.14 | 20.7 µM | 1.82 | 7.54 | 5.3 | > 100 | 5.67 | 37.7 | 3.42 | 16.6 µM | 3.62 | 12.2 | 2.63 | 6.3 µM | – | – | 4.17 | 69.1
22 | N=C1C(c2nc3ccccc3s2)=C(O)CN1c1cc(Cl)cc(Cl)c1 | – | – | > 100 | > 100 µM | > 100 | > 100 | > 100 | > 100 | > 100 | > 100 | > 100 | > 100 µM | > 100 | > 100 | 88.2 | > 100 µM | > 100 | > 100 | > 100 | > 100
23 | CC(C)COC(c1ccc2c(c1)OCO2)C(C)Br (stereo unspecified) | – | 50.9 | – | 35.4 µM | – | > 100 | – | > 100 | – | > 100 | – | 38.6 µM | – | 80 | – | 34.8 µM | – | – | – | > 100
24 | N#Cc1c(N)c(C#N)c2c(c1-c1ccc(Cl)cc1)COc1ccc(F)cc1-2 | 16.7 | > 50 | 43.9 | > 50 µM | 7.89 | 28 | > 50 | > 50 | 7.63 | 29.9 | – | – | > 50 | > 50 | 16.2 | > 50 µM | > 50 | > 50 | > 50 | > 50
25 | Fc1ccc(C2C3CCOc4c(ccc5ccccc45)C3=NN2c2ccccc2)cc1 (stereo unspecified) | > 100 | > 100 | 88.4 | > 100 µM | > 100 | > 100 | 99.2 | > 100 | > 65 | > 100 | – | – | > 100 | > 100 | 99.6 | > 100 µM | 30.7 | > 100 | > 54.9 | > 100
26 | CNCCNc1nc2ccccc2c2c(=O)c3cccc(C)c3sc12 | 0.853 | 1.7 | 0.791 | 1.49 µM | 1.07 | 3.94 | – | – | – | – | 0.824 | 1.65 µM | – | – | 1.47 | 5.27 µM | 1.28 | 3.42 | 1.55 | 8.7
27 | O=c1[nH]c(SCc2ccccc2[N+](=O)[O-])nc2nc[nH]c12 | – | > 100 | – | > 100 µM | – | > 100 | – | > 100 | – | > 100 | – | – | – | > 100 | – | > 100 µM | – | > 100 | – | > 100
28 | CC12CC(=O)C3C(CCC4=CC(=O)CCC43C)C1CC=C2CC(=O)O (stereo unspecified) | – | > 100 | – | > 100 µM | – | > 100 | – | > 100 | – | > 100 | – | – | – | > 100 | – | > 100 µM | – | > 100 | – | > 100
